{"source": "ChEMBL document CHEMBL3870346", "about": "“Development of a simple proton nuclear magnetic resonance-based procedure to estimate the approximate distribution coefficient at physiological pH (logD7.4): Evaluation and comparison to existing practices” (Bioorg Med Chem Lett, 2017)", "key": {"physchem [1]": {"experiment": "physchem", "settings": "1-octanol/D2O, pH 7.4"}, "[2]": {"experiment": "n-Octanol/water partition coefficient, log P of the compound by HPLC method"}, "physchem [3]": {"experiment": "physchem", "settings": "buffer, pH 7.4"}}, "note": "Structures can show the parent of a compound that is named as a salt."}
{"compound": "N#Cc1ccccc1", "note": "[BENZONITRILE]", "values": [{"measurement": "logD", "setting": "physchem [1]", "result": 1.6}, {"measurement": "logP", "setting": "[2]; n-octanol/water", "result": 1.6}]}
{"compound": "COC(=O)c1ccccc1", "note": "[METHYL BENZOATE]", "values": [{"measurement": "logD", "setting": "physchem [1]", "result": 1.9}]}
{"compound": "CC(=O)Nc1ccccc1", "note": "[ACETANILIDE]", "values": [{"measurement": "logD", "setting": "physchem [3]", "result": 1.2}, {"measurement": "logD", "setting": "physchem [1]", "result": 0.7}, {"measurement": "logP", "setting": "[2]; octanol/water", "result": 1}]}
{"compound": "CCOC(=O)c1ccccc1", "note": "[ETHYL BENZOATE]", "values": [{"measurement": "logD", "setting": "physchem [1]", "result": 2.4}]}
{"compound": "c1ccc(-c2ccccc2)cc1", "note": "[BIPHENYL]", "values": [{"measurement": "logD", "setting": "physchem [3]", "result": 4}, {"measurement": "logP", "setting": "[2]; octanol/water", "result": 4}]}
{"compound": "c1ccc(Oc2ccccc2)cc1", "values": [{"measurement": "logD", "setting": "physchem [1]", "result": 3.5}]}
{"compound": "Clc1ccccc1", "note": "[CHLOROBENZENE]", "values": [{"measurement": "logD", "setting": "physchem [3]", "result": 2.9}, {"measurement": "logD", "setting": "physchem [1]", "result": 2.6}, {"measurement": "logP", "setting": "[2]; n-octanol/water", "result": 2.8}]}
{"compound": "Oc1ccccc1", "note": "[PHENOL]", "values": [{"measurement": "logD", "setting": "physchem [3]", "result": 1.3}, {"measurement": "logD", "setting": "physchem [1]", "result": 1.2}]}
{"compound": "Nc1ccc(Cl)cc1", "note": "[4-CHLOROANILINE]", "values": [{"measurement": "logD", "setting": "physchem [1]", "result": 1.8}]}
{"compound": "CCC(C)=O", "note": "[BUTANONE]", "values": [{"measurement": "logD", "setting": "physchem [3]", "result": 0.3}, {"measurement": "logD", "setting": "physchem [1]", "result": 0.4}, {"measurement": "logP", "setting": "[2]; n-octanol/water", "result": 0.3}]}
{"compound": "COc1ccc(O)cc1", "note": "[MEQUINOL]", "values": [{"measurement": "logD", "setting": "physchem [3]", "result": 1.3}, {"measurement": "logD", "setting": "physchem [1]", "result": 0.8}, {"measurement": "logP", "setting": "[2]; n-octanol/water", "result": 1.3}]}
{"compound": "CC(=O)c1ccccc1", "note": "[ACETOPHENONE]", "values": [{"measurement": "logD", "setting": "physchem [1]", "result": 1.7}]}
{"compound": "Cc1ccc(O)cc1", "note": "[p-CRESOL]", "values": [{"measurement": "logD", "setting": "physchem [3]", "result": 1.8}, {"measurement": "logD", "setting": "physchem [1]", "result": 2}, {"measurement": "logP", "setting": "[2]; octanol/water", "result": 1.9}]}
{"compound": "COc1ccccc1", "note": "[ANISOLE]", "values": [{"measurement": "logD", "setting": "physchem [3]", "result": 2.3}, {"measurement": "logD", "setting": "physchem [1]", "result": 2.3}]}
{"compound": "CCN(CC)CCOC(=O)c1ccc(N)cc1", "note": "[PROCAINE HYDROCHLORIDE]", "values": [{"measurement": "logD", "setting": "physchem [1]", "result": -0.4}]}
{"compound": "Cc1ccc(CO)cc1", "values": [{"measurement": "logD", "setting": "physchem [3]", "result": 1.8}, {"measurement": "logD", "setting": "physchem [1]", "result": 1.4}, {"measurement": "logP", "setting": "[2]; n-octanol/water", "result": 1.6}]}
{"compound": "CC(=O)Nc1ccc(O)cc1", "note": "[ACETAMINOPHEN]", "values": [{"measurement": "logD", "setting": "physchem [1]", "result": 0.2}]}
{"compound": "OCc1ccccc1", "note": "[BENZYL ALCOHOL]", "values": [{"measurement": "logD", "setting": "physchem [1]", "result": 0.9}]}
{"compound": "c1ccc2c(c1)ccc1ccccc12", "values": [{"measurement": "logD", "setting": "physchem [3]", "result": 4.5}, {"measurement": "logP", "setting": "[2]; n-octanol/water", "result": 4.5}]}
{"compound": "O=[N+]([O-])c1ccccc1O", "note": "[NITROPHENOLATE]", "values": [{"measurement": "logD", "setting": "physchem [1]", "result": 1.5}, {"measurement": "logP", "setting": "[2]; n-octanol/water", "result": 1.8}]}
{"compound": "c1ccc2ccccc2c1", "values": [{"measurement": "logD", "setting": "physchem [3]", "result": 3.4}]}
